# Tests used:
# [1] = tested on: dynorphin A induced spinal cord injury model; experiment: Dynorphin A induced spinal cord injury model (hindlimb motor function); assay type: in vivo, rat
# Excerpt: Neuroprotective properties of BD-1008 and selected compounds of this invention have been evaluated in the dynorphin A induced spinal cord injury model. Along with several other neuropeptides, dynorphin A has potent vasoconstrictory effects on the vasculature of the rat brain and spinal cord; thus it provides a convenient, reproducible pharmacological means to induce and study ischemic central nervous system injury. Furthermore, localized effects of this peptide on the lumbosacral spinal cord following L4-L5 intervertebral injection allows for simple and straightforward neurological appraisals through assessment of hindlimb motor function.
# Sigma receptors = experiment: Sigma receptor binding assay with [3H]-(+)-3-PPP, crude P2 membranes; conditions: guinea pig brain membranes; determined in independent experiments
# Method: Sigma receptors were labeled with [^3H]-(+)-3-PPP (109 Ci/mmol).
# For most compounds in the study, a concentration range of 0.0005-100 nM was appropriate. […] Twelve concentrations of unlabelled ligand were incubated with 3 nM [^3H](+)-3-PPP as described in Methods. The CDATA iterative curve fitting program (EMF Software, Inc., Baltimore, MD) was used to determine IC50 values. Values are the average of 2-4 experiments, ±SEM. Each experiment was carried out in duplicate. The Cheng-Prussoff equation^27 was then used to convert IC50 values to apparent Ki values.
# PCP receptors = experiment: Phencyclidine (PCP) receptor binding assay with [3H]TCP; conditions: guinea pig brain; determined in independent experiments
compound,measurement,setting,value
CN(CCc1ccc(Cl)c(Cl)c1)CCN1CCCC1 [BD-1008],impact on the primary vascular responses to dynorphin A,[1]; dynorphin A-induced reduction in lumbosacral blood flow,without any measurable impact
same,neurological recovery from the flaccid hindlimb paralysis,"[1]; paralysis from a 20 nanomole dose of dynorphin A, L4-L5 intervertebral injection",significantly improves neurological recovery
CCCN1CCC[C@H](c2cccc(O)c2)C1 [[^3H]-(+)-3-PPP],Kd,Sigma receptors,27.4 nM
c1csc(C2(N3CCCCC3)CCCCC2)c1 [[^3H]TCP],Kd,PCP receptors,25 nM
